From paper PMC9663686, “Proline, hydroxyproline, and pyrrolidone carboxylic acid derivatives as highly efficient but reversible transdermal permeation enhancers” (Scientific Reports, 2022)

Experiments:
[1] = system: 3T3 mouse fibroblasts; test: Neutral red (NR) uptake cell viability assay, 3T3; assay type: cell-based; conditions: NIH3T3, 48-h incubation, read-out: IC50, 3T3 cells, NR assay
From the text: (§1) Next, the in vitro toxicities of the most promising enhancers Pro3 and Pro4, along with the parent Pro2, on spontaneously immortalized human keratinocytes (HaCaT) and Swiss albino mouse embryonic fibroblasts (3T3) were studied (Fig. 3). […] The cellular toxicities were further probed using the 3-(4,5-dimethylthiazol-2-yl)-2,5-diphenyltetrazolium bromide (MTT) uptake assay, based on the transformation of yellow MTT into purple formazan by mitochondrial reductases of living cells. The MTT assay also yielded toxicity values in tens of µM with trends to higher toxicity with a longer acyl chain length (thus also higher lipophilicity) of enhancers (Fig. 3).
(§2) Cell viability was determined via 3-(4,5-dimethylthiazol-2-yl)-2,5-diphenyltetrazolium bromide (MTT) and neutral red (NR) uptake assays after 48-h incubation with the enhancers (see Supplementary data for details).
(§3) Both cell lines were cultivated in Dulbecco’s modified Eagle’s medium (DMEM, Lonza, Basel, Switzerland) supplemented with 10% heat-inactivated fetal bovine serum (Merck, Darmstadt, Germany), 10 mM HEPES buffer (Merck, Darmstadt, Germany), and 1% penicillin/streptomycin solution (Lonza, Basel, Switzerland) in 75-cm^2 tissue culture flasks (TPP, Trasadingen, Switzerland) at 37°C in a humidified atmosphere of 5% CO2. Subconfluent cells were sub-cultured every 3-4 days.
(§4) For toxicity studies, the stock-solutions of studied compounds were prepared in dimethyl sulfoxide (DMSO). These stock samples were diluted to the required concentration by the cell culture medium immediately before adding them onto the cells. The amount of DMSO applied to the cells was kept under its intrinsic measurable toxicity limit (below 1 vol.%). […]
(§5) Another approach used for the toxicity assessment was the neutral red (NR) uptake assay. […] The plates were shaken at rt for 30 min, and the optical density of the soluble NR was measured at λ = 540 nm using a Tecan Infinite 200 M plate reader.
(§6) The viability of each experimental group was expressed as the percentage of the untreated controls incubated under the same conditions (100%).

[2] = system: 3T3 mouse fibroblasts; test: MTT cell viability assay, 3T3; assay type: cell-based; conditions: NIH3T3, 48-h incubation, mean ± SEM, read-out: IC50, 3T3 cells, MTT assay
From the text: as §1, §2, §3
For toxicity studies, the stock-solutions of studied compounds were prepared in dimethyl sulfoxide (DMSO). […]
After 48-h incubation with the studied enhancer, cell viability was determined via 3-(4,5-dimethylthiazol-2-yl)-2,5-diphenyltetrazolium bromide (MTT) uptake assay based on the transformation of yellow MTT into purple formazan by mitochondrial reductase activity of living cells. […] Afterward, the cell viability was assessed by optical density measurement using a Tecan Infinite 200 M plate reader (Tecan, Grödig, Austria) at λ = 570 nm.
as §6

[3] = system: HaCaT spontaneously immortalized human keratinocytes; test: Neutral red (NR) uptake cell viability assay, HaCaT; assay type: cell-based; conditions: 48-h incubation, mean ± SEM, read-out: IC50, HaCaT cells, NR assay
From the text: as §1, §2, §3, §4, §5, §6

[4] = system: human skin; test: Diclofenac permeation through human skin in Franz diffusion cells with co-applied enhancer; assay type: in vitro ADME; conditions: for CDERMIS, diclofenac concentration in dermis / CEPIDERMIS, diclofenac concentration in epidermis: 1% enhancer co-applied with 3% DC in 60% PG, after 48 h permeation, mean ± SEM
Method: (§7) Donor samples for reversibility and infrared studies contained 1% enhancer in 60% PG. All samples were thoroughly mixed, incubated at 32 °C for 24 h, and, if needed, carefully resuspended before applying on the skin. The effects of the studied enhancers on the solubility of model drugs were assessed as described previously.
(§8) The permeation-enhancing potencies of the prepared compounds were evaluated on human skin in Franz diffusion cells. Human skin was slowly thawed, cut into 2 × 2 cm pieces, fixed in Teflon holders with 1-cm^2 circular permeation areas, and mounted into Franz cells epidermal side up. The acceptor compartment (15.9 ± 0.1 ml) was filled with phosphate-buffered saline at pH 7.4 with 0.005% gentamicin (PBS) and stirred at 32 °C throughout the experiment. The skin integrity was checked by electrical impedance (any skin sample with the impedance < 10 kΩ was excluded). Then, 100 µl of a donor sample (infinite dose) was applied to the skin and covered with a glass slide. Acceptor phase samples (300 µl) were collected at predetermined time intervals for 48 h, to reach steady-state and were replaced by the same volume of fresh PBS. […] The drug concentrations were measured by HPLC (see supplementary data).
(§9) The flux of the model drug through the skin Jss (µg/cm^2/h) was calculated from the linear region of this plot. The enhancement ratio (ER) was calculated as the ratio of flux with and without an enhancer.
(§10) After the permeation experiment, the cells were dismounted, the skin was carefully washed with PBS, and the permeation area of the skin (1 cm^2) was punched off. After heating the skin fragments to 80 °C for 1 min, the epidermis (E) was peeled off the dermis (D), individually weighed and extracted by 1 and 2 ml, respectively, of an extraction solvent (identical to the mobile phase for the drug HPLC analysis, see supplementary data) for 24 h. The drug concentration was measured by HPLC (see supplementary data).

[5] = system: human skin; test: Theophylline permeation through human skin in Franz diffusion cells with co-applied enhancer; assay type: in vitro ADME; conditions: 1% enhancer co-applied with 5% TH in 60% PG; for CDERMIS, theophylline concentration in dermis / CEPIDERMIS, theophylline concentration in epidermis: after 48 h permeation, mean ± SEM; for ER, enhancement ratio of theophylline flux (fold increase in flux over control): human skin in vitro
Method: The prepared enhancers were applied at 1% in 60% aqueous propylene glycol (PG) to human skin in vitro; 60% PG was used as a negative control. PG was selected for its synergy with amphiphilic enhancers. Each model drug was co-applied with the enhancer at infinite dose.
as §7, §8, §9, §10

[6] = 1% enhancer with 3% DC in 60% PG

SMILES | IC50 [1] [µM] | IC50 [2] [µM] | IC50 [3] [µM] | CDERMIS, diclofenac concentration in dermis [4] [µg/mg] | CEPIDERMIS, diclofenac concentration in epidermis [4] [µg/mg] | CDERMIS, theophylline concentration in dermis [5] [µg/mg] | CEPIDERMIS, theophylline concentration in epidermis [5] [µg/mg] | ER, enhancement ratio of theophylline flux (fold increase in flux over control) [5] | fold increase of DC retention in dermis over control [4, 6] | fold increase of DC retention in epidermis over control [4, 6] [fold]
CCCCCCCCCCCCOC(=O)C1CCCN1C(C)=O (centres unmarked) [Pro2, N-acetyl proline dodecyl ester] | 84.09 ± 0.49 | 92.4 ± 2.82 | 98.1 ± 4.49 | 1.08 ± 0.09 | 7.16 ± 0.79 | 0.37 ± 0.02 | 1.04 ± 0.11 | 28 |  | 
CCCCCCCCCCCCOC(=O)C1CCCN1C(=O)CC (centres unmarked) [Pro3] | 57.2 ± 2.58 | 84.4 ± 1.5 | 74.4 ± 1.75 | 1.54 ± 0.28 | 11.18 ± 2.39 | 0.32 ± 0.03 | 1.11 ± 0.17 | 31 |  | 
CCCCCCCCCCCCOC(=O)C1CCCN1C(=O)CCC (centres unmarked) [Pro4] | 56.8 ± 2.45 | 63.9 ± 1.91 | 54.6 ± 1.11 | 1.71 ± 0.31 | 12.70 ± 2.71 | 0.25 ± 0.01 | 0.83 ± 0.08 | 25 | fourfold | 3
